Like-named read-outs stand apart in the source and are kept apart here.
Columns and labels:
Assay type in all cases: physicochemical
[1] = Gloss of wax-solidified ester (handy glossmeter); settings: coated on paraffin paper, intensity of reflected light at 60°
Protocol: Each of the solidified product was coated on paraffin paper and gloss was measured with a handy glossmeter manufactured by HORIBA Ltd. Gloss was expressed by intensity of light reflected on the coated surface of paraffin paper at incident angle/reflection angle of 60°.

[2] = Dispersability for pigment, organic pigment Red No. 202
Excerpt: (§1) Titanium dioxide, red iron oxide and organic pigment used in the measurement are PIGMOLITE CR-50, PIGMOLITE BENGARA No. 211 and Red 202, respectively, manufactured by DAITO KASEI KOGYO Co. Ltd. The dispersability is expressed by amount (g) of the tested sample per 100 g of the pigment at wet point (W.P) and flow point (F.P).

[3] = Dispersability for pigment, titanium dioxide
Excerpt: as §1

[4] = Dispersability for pigment, red iron oxide; settings: amount of tested sample per 100 g of the pigment at wet point
Excerpt: as §1

[5] = Refractive index (refractometer Model 3)
Protocol: Refractive index of the dimerdiol esters obtained in Examples 1, 3, 5, 7, 9 and 11 were measured. Each of the refractive index was measured at 30° C. using a refractometer Model 3 (Manufactured by ATAGO BUSSAN Ltd.).
Refractive index of the esters obtained in Examples 28-35 were measured. Each of the refractive index was measured at 20° C. using a refractometer Model 3 (Manufactured by ATAGO BUSSAN Ltd.).

[6] = Alkali hydrolysis resistance; settings: 0.8 g of sample heated at 80° C. for 3 hours in 25 mL of 0.05 N KOH-ethanol solution
Protocol: Alkali hydrolysis resistance of the dimerdiol esters obtained in Examples 1, 3, 5, 7, 9 and 11 were measured. The alkali hydrolysis resistance was expressed by the decomposition ratio of 0.8 g of sample which was heated at 80° C. for 3 hours in 25 mL of 0.05 N of KOH-ethanol solution.

[7] = Oxidation stability, Rancimat 676 automatic oils and fats stability test
Excerpt: Index of the oxidation stability was expressed by the time until conductance of the trapped water started rising. […] Index of the oxidation stability was expressed by the time until conductance of the trapped water started rising.

[8] = amount of tested sample per 100 g of the pigment at flow point
[9] = amount of tested sample per 100 g of the pigment at wet point
[10] = 120° C., 3 g of sample, air flow rate 20 L/Hr, time until conductance of the trapped water started rising, esters of Examples 1-12

Decomposition ratio [6] [%] | Refractive index ([5]; 30° C.) | Compound | Index of oxidation stability [7, 10] [h] | further results
 |  | CC(C)CCCCCCCCCCCCCCCOC(=O)CC(O)C(=O)OCCCCCCCCCCCCCCCC(C)C (centres unmarked) [di-iostearyl malate, di-isostearyl malate] |  | Gloss, Candelira wax ([1]; solidified by compounding 20% of candelira wax): 41; Gloss, Ceresin ([1]; solidified by compounding 20% of ceresine): 35; Red 202 F.P [2, 8]: 200 g; Red 202 W.P [2, 9]: 106 g; Titanium dioxide F.P [3, 8]: 55 g; Titanium dioxide W.P [3, 9]: 26 g; Red iron oxide W.P [4]: 63 g; Refractive index ([5]; 20° C.): 1.4611
8 |  | CC(C)CCCCC(=O)OCC(O)CO (centres unmarked) [glyceryl isooctanoate, reference compound] |  | 
 | 1.4778 | dimerdiol [PESPOL HP-1000] |  | 
70 | 1.4709 | isostearic acid dimerdiol ester [Example 11] | 8 | 
 |  | long chain branched fatty acid dimerdiol ester [Example 7] |  | Index of oxidation stability [7]: 4 h
71 | 1.4659 | mono-isostearic acid dimerdiol ester [Example 5] | 8 | 

Compound | Decomposition ratio [6] [%] | Refractive index ([5]; 30° C.) | Index of oxidation stability [7, 10] [h] | further results
erucic acid dimerdiol ester [Example 3] | 79 | 1.4719 | 3 | 
hydrogenated rosin dimerdiol ester [Example 1] | 3 | 1.5075 | 6 | 
